From ChEMBL document CHEMBL3526048, “In vitro metabolism of rivoglitazone, a novel peroxisome proliferator-activated receptor γ agonist, in rat, monkey, and human liver microsomes and freshly isolated hepatocytes” (Drug Metab Dispos, 2011)

What was measured:
[1] = system: Hepatocyte (Macaca fascicularis); experiment: Drug level in monkey hepatocytes treated with [14C]-rivoglitazone at 30 uM after 3 hrs by radio-HPLC/LC-MS/MS analysis in presence of UDPGA, UDPGA/SAM and NADPH-generating system; details: cynomolgus monkey
[2] = Drug metabolism in rat hepatocytes assessed as formation of 2-((4-((2,4-dioxothiazolidin-5-yl)methyl)phenoxy)methyl)-1-methyl-1H-benzo[d]imidazol-6-yl hydrogen sulfate at 30 uM after 3 hrs by radio-HPLC/LC-MS/MS analysis; format: ADME, cell-based, Hepatocyte
[3] = biological target: T1, UDP-glucuronosyltransferase 2B15 (Homo sapiens, UniProt P54855); experiment: (§1) Activity of human UGT2B15 expressed in microsomes isolated from baculovirus infected insect cell assessed as enzyme-mediated (2S,3S,4S,5R,6R)-3,4,5-trihydroxy-6-(5-(4-((6-methoxy-1-methyl-1H-benzo[d]imidazol-2-yl)methoxy)benzyl)-2,4-dioxothiazolidin-3-yl)tetrahydro-2H-pyran-2-carboxylic acid formation at 20 uM after 4 hrs by radio-HPLC/LC-MS/MS analysis in presence of UDPGA; format: ADME
T1 sequence (P54855 whole entry): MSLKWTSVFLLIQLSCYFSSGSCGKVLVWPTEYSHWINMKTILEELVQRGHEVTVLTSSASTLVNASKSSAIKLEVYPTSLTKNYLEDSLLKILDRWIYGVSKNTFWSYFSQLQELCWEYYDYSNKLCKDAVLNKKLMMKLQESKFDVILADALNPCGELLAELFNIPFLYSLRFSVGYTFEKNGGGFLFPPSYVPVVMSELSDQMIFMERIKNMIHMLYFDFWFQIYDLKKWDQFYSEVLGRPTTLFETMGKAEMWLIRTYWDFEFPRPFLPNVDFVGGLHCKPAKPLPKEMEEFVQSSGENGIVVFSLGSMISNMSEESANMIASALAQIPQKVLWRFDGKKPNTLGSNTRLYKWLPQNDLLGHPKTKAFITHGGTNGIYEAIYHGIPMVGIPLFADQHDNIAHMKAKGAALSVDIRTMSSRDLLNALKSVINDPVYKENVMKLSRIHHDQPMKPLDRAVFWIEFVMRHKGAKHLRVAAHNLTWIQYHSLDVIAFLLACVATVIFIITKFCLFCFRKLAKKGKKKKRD

Cytochrome P450 2D6 [4] = biological target: T2, Cytochrome P450 2D6 (Homo sapiens, UniProt P10635); experiment: Activity of human CYP2D6 expressed in microsomes isolated from baculovirus infected insect cell assessed as enzyme-mediated 5-hydroxy-5-(4-((6-methoxy-1-methyl-1H-benzo[d]imidazol-2-yl)methoxy)benzyl)thiazolidine-2,4-dione formation at 20 uM after 2 hrs by radio-HPLC/LC-MS/MS analysis in presence of NADPH-generating system and NADPH-generating system/SAM; format: ADME
Cytochrome P450 3A4 = Cytochrome P450 3A4 (Homo sapiens, UniProt P08684); experiment: Activity of human CYP3A4 expressed in microsomes isolated from baculovirus infected insect cell assessed as enzyme-mediated 3-(4-((6-methoxy-1-methyl-1H-benzo[d]imidazol-2-yl)methoxy)phenyl)-2-(methylsulfonyl)propanamide formation at 20 uM after 2 hrs by radio-HPLC/LC-MS/MS analysis in presence of NADPH-generating system/SAM; format: ADME
[5] = Drug metabolism in cynomolgus monkey liver microsomes assessed as formation of 5-hydroxy-5-(4-((6-methoxy-1-methyl-1H-benzo[d]imidazol-2-yl)methoxy)benzyl)thiazolidine-2,4-dione at 20 uM after 2 hrs by radio-HPLC/LC-MS/MS analysis in presence of NADPH-generating system and NADPH-generating system/SAM; format: ADME, Macaca fascicularis
[6] = biological target: T3, UDP-glucuronosyltransferase 1A4 (Homo sapiens, UniProt P22310); experiment: as §1, with “UGT1A4” for “UGT2B15”; format: ADME
T3 sequence (P22310 whole entry): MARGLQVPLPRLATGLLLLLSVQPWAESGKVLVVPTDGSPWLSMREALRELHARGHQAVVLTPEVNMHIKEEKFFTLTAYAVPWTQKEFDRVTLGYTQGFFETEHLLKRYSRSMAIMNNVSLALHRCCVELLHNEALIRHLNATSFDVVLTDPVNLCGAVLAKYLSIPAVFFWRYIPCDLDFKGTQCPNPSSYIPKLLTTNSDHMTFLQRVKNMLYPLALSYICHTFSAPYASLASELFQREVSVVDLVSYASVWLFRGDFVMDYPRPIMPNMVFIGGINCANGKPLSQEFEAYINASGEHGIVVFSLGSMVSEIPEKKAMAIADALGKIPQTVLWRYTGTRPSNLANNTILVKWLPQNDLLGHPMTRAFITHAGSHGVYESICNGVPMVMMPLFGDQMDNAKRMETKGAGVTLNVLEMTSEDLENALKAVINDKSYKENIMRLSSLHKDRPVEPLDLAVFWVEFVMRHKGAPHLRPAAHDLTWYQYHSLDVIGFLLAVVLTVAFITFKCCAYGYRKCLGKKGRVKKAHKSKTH

[7] = biological target: T4, UDP-glucuronosyltransferase 1A9 (Homo sapiens, UniProt O60656); experiment: as §1, with “UGT1A9” for “UGT2B15”; format: ADME
T4 sequence (O60656 whole entry): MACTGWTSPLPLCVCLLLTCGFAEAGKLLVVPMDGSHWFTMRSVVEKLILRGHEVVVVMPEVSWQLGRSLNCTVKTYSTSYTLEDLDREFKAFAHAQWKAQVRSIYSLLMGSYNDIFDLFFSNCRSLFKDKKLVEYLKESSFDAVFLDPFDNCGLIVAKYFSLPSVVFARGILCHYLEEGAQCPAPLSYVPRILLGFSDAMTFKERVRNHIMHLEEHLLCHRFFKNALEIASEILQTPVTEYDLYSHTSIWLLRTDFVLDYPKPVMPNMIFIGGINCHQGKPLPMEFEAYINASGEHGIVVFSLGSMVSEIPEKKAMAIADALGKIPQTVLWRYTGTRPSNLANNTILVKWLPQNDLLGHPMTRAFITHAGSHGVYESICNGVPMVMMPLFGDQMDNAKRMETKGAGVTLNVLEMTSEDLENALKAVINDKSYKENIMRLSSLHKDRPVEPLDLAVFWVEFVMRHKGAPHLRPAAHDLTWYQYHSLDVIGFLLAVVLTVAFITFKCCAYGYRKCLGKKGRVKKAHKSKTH

Cytochrome P450 2D6 [8] = biological target: T2, Cytochrome P450 2D6; experiment: Activity of human CYP2D6 expressed in microsomes isolated from baculovirus infected insect cell assessed as enzyme-mediated 2-hydroxy-3-(4-((6-methoxy-1-methyl-1H-benzo[d]imidazol-2-yl)methoxy)phenyl)propanamide formation at 20 uM after 2 hrs by radio-HPLC/LC-MS/MS analysis in presence of NADPH-generating system and NADPH-generating system/SAM; format: ADME
[9] = Drug metabolism in monkey hepatocytes assessed as formation of 3-(4-((6-methoxy-1-methyl-1H-benzo[d]imidazol-2-yl)methoxy)phenyl)-2-(methylthio)propanoic acid at 30 uM after 3 hrs by radio-HPLC/LC-MS/MS analysis in presence of NADPH-generating system/SAM and UDPGA/SAM; details: cynomolgus monkey

T2 sequence (P10635 whole entry): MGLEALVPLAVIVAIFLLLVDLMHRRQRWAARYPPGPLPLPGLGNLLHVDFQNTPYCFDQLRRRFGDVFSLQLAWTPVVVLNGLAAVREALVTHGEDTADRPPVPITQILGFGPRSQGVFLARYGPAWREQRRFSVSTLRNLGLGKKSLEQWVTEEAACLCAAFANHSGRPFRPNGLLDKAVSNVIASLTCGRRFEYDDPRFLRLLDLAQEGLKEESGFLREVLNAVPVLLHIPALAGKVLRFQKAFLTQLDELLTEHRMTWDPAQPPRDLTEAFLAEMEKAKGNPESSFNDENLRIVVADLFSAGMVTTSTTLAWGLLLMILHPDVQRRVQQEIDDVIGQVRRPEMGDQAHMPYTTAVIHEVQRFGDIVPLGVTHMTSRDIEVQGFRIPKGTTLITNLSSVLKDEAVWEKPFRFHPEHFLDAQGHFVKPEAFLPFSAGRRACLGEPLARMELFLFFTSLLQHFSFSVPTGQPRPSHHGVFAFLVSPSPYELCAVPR
Cytochrome P450 3A4, sequence (P08684 whole entry): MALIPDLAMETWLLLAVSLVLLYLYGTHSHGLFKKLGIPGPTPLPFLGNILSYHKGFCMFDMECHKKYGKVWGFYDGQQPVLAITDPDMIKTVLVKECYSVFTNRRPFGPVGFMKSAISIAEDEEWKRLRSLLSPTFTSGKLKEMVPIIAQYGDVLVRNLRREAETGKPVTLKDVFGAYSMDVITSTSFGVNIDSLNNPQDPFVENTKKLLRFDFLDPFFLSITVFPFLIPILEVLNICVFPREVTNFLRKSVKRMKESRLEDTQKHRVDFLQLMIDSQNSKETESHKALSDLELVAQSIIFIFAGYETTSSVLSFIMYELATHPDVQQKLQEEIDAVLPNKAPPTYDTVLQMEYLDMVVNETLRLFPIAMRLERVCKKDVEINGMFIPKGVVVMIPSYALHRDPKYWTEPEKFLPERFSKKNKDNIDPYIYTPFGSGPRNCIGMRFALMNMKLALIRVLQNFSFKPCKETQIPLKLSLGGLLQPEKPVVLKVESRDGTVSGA

SMILES | Drug metabolism [1] | Drug metabolism [2] | Drug metabolism [3] | Drug metabolism (Cytochrome P450 2D6 [4]) | Drug metabolism (Cytochrome P450 3A4) | Drug metabolism [5] | Drug metabolism [6] | Drug metabolism [7] | Drug metabolism (Cytochrome P450 2D6 [8]) | Drug metabolism [9]
COc1ccc2nc(COc3ccc(CC(S)C(=O)O)cc3)n(C)c2c1 (stereo not given) | metabolite_not_detected |  |  |  |  |  |  |  |  | 
COc1ccc2nc(COc3ccc(C[14CH]4SC(=O)NC4=O)cc3)n(C)c2c1.Cl (racemic) |  | metabolite_detected | metabolite_not_detected | metabolite_detected | metabolite_not_detected | metabolite_detected | metabolite_not_detected | metabolite_not_detected | metabolite_detected | metabolite_not_detected
